Assay results from patent publication US20100099770A1, “METHOD FOR TREATING DIABETIC PERIPHERAL NEUROPATHIC PAIN” (SCHWARZ PHARMA AG, priority 2001, published 2010).
“Also recorded” adds a separate entry of the source. Marks after values point to notes of the source that are not given here.

Legend:
[1] = system: spontaneous pain induced by unilateral chronic constriction injury; assay: Chronic constriction injury (CCI, Bennett model): spontaneous pain; type: in vivo, rat; conditions: for Spontaneous nociception, weighted pain score, Post-op + Drug: ligated paw, score 0-5, ±SEM
Experimental: (§1) The effectiveness of harkoseride in reducing spontaneous chronic pain, mechanical allodynia, and thermal hyperalgesia was tested using the chronic constriction injury (CCI) model of peripheral neuropathy, one of the best characterised in vivo animal models used to study chronic pain due to peripheral nerve injury. In this model, loose ligatures are placed around the sciatic nerve, which produces axonal swelling and a partial deafferentation manifested as a significant but incomplete loss of axons in the distal portion of the peripheral nerve. One of the prominent behaviours seen following sciatic nerve ligation is the appearance of hind paw guarding, thought to be an indication of an ongoing spontaneous chronic pain. Support for this idea is derived from reports of increased spinal cord neural activity, and increased spontaneous neuronal discharge in spinothalamic tract neurons and in the ventrobasal thalamus in the absence of overt peripheral stimulation. In addition to the appearance of spontaneous pain behaviours, several abnormalities in stimulus evoked pain occur as a result of CCI, including thermal hyperalgesia and mechanical allodynia. The development of these abnormal stimulus-evoked pains has also been reported as occurring in areas outside the territory of the damaged nerve, areas innervated by uninjured nerves.
(§2) Behavioural tests for spontaneous pain, thermal hyperalgesia, and mechanical allodynia were conducted to evaluate different components of neuropathic pain. Baseline data for each test was collected prior to any experimental procedure; in addition, all animals were tested for the development of chronic pain behaviours 13-25 days after CCI surgery 1 day prior to the day of vehicle (0.04 ml sterile water/10 g body weight) or drug administration and after vehicle/drug administration. The sequence of the tests was (1) spontaneous pain-related behaviour (2) mechanical allodynia, (3) thermal hyperalgesia in order to minimise the influence of one test on the result of the next. The testing procedures and results are presented separately for each aspect of chronic pain. Either 0 (vehicle, 0.04 ml/10 g body weight), 5, 10, 20 or 40 mg/kg of SPM 927 (n=7-23/group) was administered i.p. 15 minutes before the first behavioural test.
Spontaneous pain (ongoing pain without an apparent external stimulus) of the ligated paw was assessed for 5 min following a 10 min acclimation period by use of a rating score (weighted behaviour score scaled 0-5).

[2] = system: mechanical allodynia induced by unilateral nerve ligation; assay: CCI model: mechanical allodynia (electronic Von Frey); type: in vivo, rat; conditions: for Mechanical allodynia, pressure to elicit foot withdrawal, Post-op + Drug: ligated hind paw, ±SEM
Experimental: as §1, §2
Mechanical sensitivity and allodynia of the ligated rat hind paw was quantified by brisk foot withdrawal in response to normally innocuous mechanical stimuli as described previously. Responsiveness to mechanical stimuli was tested with a calibrated electronic Von Frey pressure algometer connected to an online computerised data collection system. A significant decrease in the post operative compared to baseline pressure (g/mm^2) necessary to elicit a brisk foot withdrawal in response to this mechanical stimulus is interpreted as mechanical allodynia.

[3] = system: acute spinal thermal nociception; assay: Tail flick test, rat; type: in vivo; conditions: for Anti-nociceptive effect: ±SEM
Excerpt: Harkoseride was additionally tested for potential activity in acute spinal thermal nociception using the tail flick test. In this model of acute thermal spinal/reflex hyperalgesia radiant heat is applied to the animal's tail approximately 2 cm from the tip and time latency for withdrawal reaction is automatically assessed by an algometer, a defined maximal stimulus time prevents tissue damage. This test is widely used as an assay for the anti-nociceptive efficacy of pharmacological agents and is highly predictive of acute analgesic efficacy in humans.
Results for 20 and 40 mg/kg harkoseride i.p are shown in table 5 [percent anti-nociception, calculated as [{(post-drug latency)−(pre-drug-latency)}/{(max. latency)−(pre-drug latency)}×100]±SEM, n=12/group]. A baseline or pre-drug tail-flick latency was determined by averaging 5 consecutive measurements taken 2 minutes apart. Vehicle (sterile water 0.04 ml/10 g body weight) or harkoseride were then administered and tail flick latencies recorded at 10-minute intervals for the next 60 minutes.

[4] = system: chronic constriction injury-induced thermal hyperalgesia; assay: CCI model: thermal hyperalgesia (radiant heat withdrawal latency); type: in vivo, rat; conditions: for Thermal hyperalgesia, withdrawal latency, Post-op + Drug: ligated hind paw, ±SEM
Experimental: as §1, §2
Thermal hyperalgesia was assessed by means of withdrawal latency in response to radiant heat applied to the subplantar surface of the ligated rat hind paw. As compared to the baseline latency (s), a significant decrease in the (postoperative) latency of foot withdrawal in response to the thermal stimulus was interpreted as indicating the presence of thermal hyperalgesia following chronic constriction injury.

[5] = system: neuropathic pain (CHUNG), tactile stimulation; assay: Neuropathic pain (CHUNG) test, tactile stimulation on lesioned paw; type: in vivo, rat; conditions: for FORCE INDUCING PAW-WITHDRAWAL, % change: compared with lesioned control; for FORCE INDUCING PAW-WITHDRAWAL, mean ± s.e.m.: lesioned paw
Excerpt: The following Tables 8 and 9 show the effects of harkoseride (hereinafter referred tows SPM 927), carbamazepine, levetiracetam, gabapentin and morphine in the neuropathic pain (CHUNG) test in the rat. Eight (8) rats per group were used.

[6] = system: Carrageenan-induced mechanical hyperalgesia; assay: Carrageenan-induced mechanical hyperalgesia, paw pressure (Randall-Sellito) test; type: in vivo, rats; conditions: for nociceptive threshold: inflamed paw, 3 h after carrageenan
Experimental: Carrageenan-induced mechanical hyperalgesia in rats was induced by subplantar injection of a 0.1 ml of a 2% carrageenan suspension and measured 3 h afterwards by the paw pressure (Randall-Sellito) test.
Drugs and experimental design: SPM 927 and GBP were suspended in 1% methylcellulose and administered i.p. at doses of 10 mg/kg, 20 mg/kg and 40 mg/kg. Pre-treatment time was 30 min before pain measurement. One group of animals served as controls and consequently received an injection of solvent (10 ml/kg) and another group of animals received a reference compound (Carrageenan test: 10 mg/kg indomethacin; Formalin test: 10 mg/kg morphine). Each compound was tested in a separate experiment and each experiment included a control and a reference group. 10 rats per group were used in the Carrageenan test and 6 mice per group in the formalin test.

COC[C@@H](NC(C)=O)C(=O)NCc1ccccc1 [SPM 927, (R)-2-Acetamido-N-benzyl-3-methoxypropionamide]
Spontaneous nociception, weighted pain score, Post-op + Drug ([1]; 5 mg/kg i.p.): 1.8 ± 0.18
Spontaneous nociception, weighted pain score, Post-op + Drug ([1]; 10 mg/kg i.p.): 1.5 ± 0.11
Spontaneous nociception, weighted pain score, Post-op + Drug ([1]; 20 mg/kg i.p.): 0.9 ± 0.14
Spontaneous nociception, weighted pain score, Post-op + Drug ([1]; 40 mg/kg i.p.): 0.8 ± 0.28
effect on level of spontaneous pain (in words) ([1]; 5-40 mg/kg i.p.): did not change
Mechanical allodynia, pressure to elicit foot withdrawal, Post-op + Drug ([2]; 5 mg/kg i.p.): 21.8 ± 2.34 g/mm^2
Mechanical allodynia, pressure to elicit foot withdrawal, Post-op + Drug ([2]; 10 mg/kg i.p.): 29.2 ± 2.85 g/mm^2
Mechanical allodynia, pressure to elicit foot withdrawal, Post-op + Drug ([2]; 20 mg/kg i.p.): 39.6 ± 3.62 g/mm^2
Mechanical allodynia, pressure to elicit foot withdrawal, Post-op + Drug ([2]; 40 mg/kg i.p.): 43.0 ± 5.48 g/mm^2
effect on intensity of mechanical allodynia (in words) ([2]; 5-40 mg/kg i.p.): dose dependently reduced
Anti-nociceptive effect ([3]; 20 mg/kg i.p., 10 min after drug): 5.0 ± 3.94%
Anti-nociceptive effect ([3]; 20 mg/kg i.p., 20 min after drug): 9.7 ± 7.51%
Anti-nociceptive effect ([3]; 20 mg/kg i.p., 30 min after drug): 9.7 ± 2.37%
Anti-nociceptive effect ([3]; 20 mg/kg i.p., 40 min after drug): 1.7 ± 7.42%
Anti-nociceptive effect ([3]; 20 mg/kg i.p., 50 min after drug): 5.4 ± 4.12%
Anti-nociceptive effect ([3]; 20 mg/kg i.p., 60 min after drug): 8.1 ± 5.20%
Anti-nociceptive effect ([3]; 40 mg/kg i.p., 10 min after drug): −1.6 ± 12.82%
Anti-nociceptive effect ([3]; 40 mg/kg i.p., 20 min after drug): −4.3 ± 14.04%
Anti-nociceptive effect ([3]; 40 mg/kg i.p., 30 min after drug): −2.3 ± 9.14%
Anti-nociceptive effect ([3]; 40 mg/kg i.p., 40 min after drug): −4.4 ± 11.44%
Anti-nociceptive effect ([3]; 40 mg/kg i.p., 50 min after drug): 0.3 ± 15.50%
Anti-nociceptive effect ([3]; 40 mg/kg i.p., 60 min after drug): −5.5 ± 14.11%
effect in the tail flick test (in words) ([3]; 20 and 40 mg/kg i.p., listed as harkoseride): negative results; also recorded: little or no effect; also recorded: no anti-nociceptive effect
Thermal hyperalgesia, withdrawal latency, Post-op + Drug ([4]; 5 mg/kg i.p.): 9.2 ± 0.98 s
Thermal hyperalgesia, withdrawal latency, Post-op + Drug ([4]; 10 mg/kg i.p.): 8.1 ± 0.59 s
Thermal hyperalgesia, withdrawal latency, Post-op + Drug ([4]; 20 mg/kg i.p.): 9.7 ± 0.96 s
Thermal hyperalgesia, withdrawal latency, Post-op + Drug ([4]; 40 mg/kg i.p.): 10.2 ± 0.75 s
effect on thermal hyperalgesia (in words) ([4]; 5-40 mg/kg i.p.): dose dependently reduced
dose at which the maximum effect on thermal hyperalgesia is seen ([4]; i.p.): 20 mg/kg
FORCE INDUCING PAW-WITHDRAWAL, % change ([5]; 8 mg/kg i.p. -30 min): +56% (b)
FORCE INDUCING PAW-WITHDRAWAL, mean ± s.e.m. ([5]; 8 mg/kg i.p. -30 min): 27.2 ± 4.9 NS (b) g
FORCE INDUCING PAW-WITHDRAWAL, % change ([5]; 16 mg/kg i.p. -30 min): +40% (b)
FORCE INDUCING PAW-WITHDRAWAL, mean ± s.e.m. ([5]; 16 mg/kg i.p. -30 min): 24.4 ± 3.0 NS (b) g
FORCE INDUCING PAW-WITHDRAWAL, % change ([5]; 32 mg/kg i.p. -30 min): +116% (b)
FORCE INDUCING PAW-WITHDRAWAL, mean ± s.e.m. ([5]; 32 mg/kg i.p. -30 min): 37.6 ± 6.1 (b) g
comparison of effects in the CHUNG test (in words) ([5]; tactile and thermal stimulation, i.p.): minimum comparable, but usually more potent than the reference compounds
nociceptive threshold ([6]; 10 mg/kg i.p. 30 min before measurement): 324 ± 15^b
nociceptive threshold ([6]; 20 mg/kg i.p. 30 min before measurement): 426 ± 24^b
nociceptive threshold ([6]; 40 mg/kg i.p. 30 min before measurement): 444 ± 13^b
effect on Carrageenan-induced mechanical hyperalgesia (in words) ([6]; 10, 20, 40 mg/kg i.p.): full reversal; also recorded: comparable to that of the reference compound Indomethacin
